# Entries after “also recorded” stand apart in the source; their conditions may differ. Marks after values point to notes of the source that are not given here.
# Tests used:
# [1] = tested on: T2DM patients on stable metformin; settings: for adjusted mean HbA1c change from baseline: PP population, linagliptin 5 mg/day, glimepiride mean dose 3 mg/day, added to metformin
# [2] = tested on: diabetic eNOS knockout C57BL/6J mice; assay: ARB-resistant diabetic nephropathy in diabetic eNOS knockout C57BL/6J mice, 12 weeks; format: in vivo; settings: for albuminuria (urinary albumin excretion per 24 h): telmisartan 1 mg/kg, linagliptin 3 mg/kg; for glomerulosclerosis in the kidney, histological score: compared with diabetic controls, p<0.05
# Source text: Fourteen mice are used as non-diabetic controls. After 12 weeks, urine and blood are obtained and blood pressure measured.
# 2K1C-rats = assay: Two-kidney-one clip reno-vascular hypertension (2K1C) rat model, systolic blood pressure; format: in vivo; settings: 3 months; telmisartan 10 mg/kg, linagliptin 89 ppm in chow
# Source text: We hypothesize that glucose/energy supply is particularly important in the failing heart that is characterized by cardiac hypertrophy. Inadequate energy supply is considered as one of the most important steps from compensated to decompensated left ventricular hypertrophy resulting in heart failure. A classical model of hypertension induced left ventricular hypertrophy that results on the long run in left ventricular failure and pathological remodeling is the two-kidney-one clip reno-vascular hypertension (Goldblatt) model (2K1C model).
# […]. Non-invasive, systolic blood pressure is measured in all groups to the time points (1. before treatment; 2. after 1 weeks 3. after 4 weeks; 4. after 6 weeks 5. after 12 weeks; and 6. after 6 weeks of treatment with the respective compounds.
# diabetic eNOS ko mice = assay: Diabetic nephropathy in STZ-diabetic eNOS ko mice, 4 weeks treatment; format: in vivo; settings: STZ treated animals, linagliptin 3 mg/kg, telmisartan 1 mg/kg p.o.
# Source text: Endothelial damage is characteristic for type 2 diabetes and contributes to the development of end stage kidney disease. Further, vascular endothelial NO synthase (eNOS) activity is altered in T2D and genetic abnormalities in the respected gene (NOS3) are associated with the development of advanced diabetic nephropathy (DN) in patients with type 1 and type 2 diabetes. The use of low dose STZ to induce T2D in this genetic phenotype (eNOS−/−) has been recently reported (Brosius et al, JASN 2009) to be a valid experimental model for DN. Eight week old eNOS −/− mice are rendered diabetic with intraperitoneal injections of streptozotocin (100 mg/kg per day for two consecutive days). Development of diabetes (defined by blood glucose>250 mg/dl) is verified one week after streptozotocin injection. No insulin is given because that could prevent the development of diabetic nephropathy. Mice are treated for 4 weeks with:
# 1) Non-diabetic eNOS ko control mice, placebo (natrosol) (n=14)
# 2) sham treated diabetic eNOS ko mice, placebo (natrosol) (n=17)
# 3) Telmisartan (p.o. 1 mg/kg) treated diabetic eNOS ko mice (n=17)
# Renal function (s-creatinine, albuminuria) and blood glucose level are detected.
# [3] = tested on: patients with type 2 diabetes; assay: Postprandial glucose excursions, safety and tolerability in patients with type 2 diabetes, multiple oral doses of BI 1356
# NOD mice = assay: Onset of diabetes and beta-cell mass in non-obese-diabetic (NOD) mice, 60 days; format: in vivo
# Source text: Though reduced pancreatic T-cell migration and altered cytokine production is considered important players for the onset of insulinitis the exact mechanism and effects on the pancreatic cell pool is still incompletely understood.
# Bi-weekly plasma samples are obtained to determine onset of diabetes (BG>11 mmol/l).
# [4] = tested on: isolated human leukocytes (PMN); assay: Oxidative burst (NADPH oxidase activation) in isolated human leukocytes (PMN); format: cell-based
# Experimental: In FIG. 4, within each setting of inhibition of oxidative burst, the first bar from left refers to activation by LPS and the second bar refers to activation by Zymosan A.
# In FIG. 6, within each setting of LPS stimulation, the first bar from left refers to w/o gliptin, the second bar refers to 1 μM Bl 1356, the third bar refers to 10 μM Bl 1356 and the fourth bar refers to 100 μM Bl 1356.
# [5] = tested on: isolated aortic ring segments; assay: Direct vasodilatory effects, isometric tension recording in isolated aortic ring segments; set-up: species or system rats; settings: cumulative concentrations 1 nM to 32 or 100 μM; versus DMSO
# Experimental: FIGS. 9A and 9B show direct vasodilatory effects of gliptins. […] The data are mean±SEM of 12 (FIG. 9A) or 4 (FIG. 9B) aortic rings from 10 rats in total: p<0.05 vs. DMSO (solvent control); ^#p<0.05 vs. sita-/vildagliptin, and ^§, p<0.05 vs. saxa-/alogliptin.
# Direct vasodilatory effects of gliptins are measured by the isometric tension technique in isolated aortic ring segments. […] In addition reactive oxygen and nitrogen species (RONS) formation is determined in isolated cardiac mitochondria and LPS or PDBu-triggered oxidative burst in whole blood.
# [6] = Pharmacokinetics of BI 1356, multiple oral doses once daily for 12 days in patients with type 2 diabetes; settings: for feT, SS: steady state (Day 12); for feT, SS / fe0-24: gMean
# [7] = tested on: rats fed a high-fat diet (diet induced obesity); assay: Diet induced obesity rats, body weight and MRS fat analysis; settings: rat, in vivo
# [8] = tested on: ischemia/reperfusion (I/R) rats; assay: Myocardial ischemia/reperfusion in Wistar rats, linagliptin from 30 days before I/R; format: in vivo
# [9] = tested on: patients with type 2 diabetes
# [10] = tested on: peroxynitrite (authentic and Sin-1 derived); assay: Direct antioxidant effect: peroxynitrite formation/-mediated nitration; format: biochemical
# [11] = tested on: hydrogen peroxide/peroxidase system; assay: Direct antioxidant effect: hydrogen peroxide/peroxidase mediated 1-electron-oxidation; format: biochemical
# 5/6N rats = assay: Rat model of chronic renal insufficiency (5/6 nephrectomy), GLP-1 levels and cardiac mRNA; format: in vivo; settings: for active GLP-1 AUC(0-72 h) / active GLP-1 maximum plasma concentration (Cmax): linagliptin 3.3 mg/kg oral for 4 days
# Source text: At the end of the study, heart tissue is harvested for mRNA analyses.
# [12] = tested on: adhesion of human neutrophils to endothelial cells (EA.hy cells); assay: Adhesion of LPS-stimulated human neutrophils to cultured endothelial cells; format: cell-based; settings: in the presence of LPS
# septic rats (LPS) = assay: LPS-induced septic shock in Wistar rats, linagliptin cotherapy; format: in vivo
# Experimental: (§1) Direct vasodilatory effects of gliptins are measured by the isometric tension technique in isolated aortic ring segments. […]. In addition reactive oxygen and nitrogen species (RONS) formation is determined in isolated cardiac mitochondria and LPS or PDBu-triggered oxidative burst in whole blood. […].
# nitrate tolerant rats = assay: Rat model of nitroglycerin-induced nitrate tolerance, oral linagliptin; format: in vivo
# Experimental: as §1
# [13] = tested on: superoxide formation from xanthine oxidase; assay: Direct antioxidant effect: superoxide formation from xanthine oxidase
structure (smiles),measurement,setting,value
"CCC1=C(C)CN(C(=O)NCCc2ccc(S(=O)(=O)NC(=O)N[C@H]3CC[C@H](C)CC3)cc2)C1=O [glimepiride, reference compound]",adjusted mean HbA1c change from baseline,[1]; 2 years,−0.5%
same,"patients with investigator-defined, drug-related hypoglycemia","[1]; human, in vivo, 2 years",36.1%
same,body weight change,[1]; in vivo,+1.3 kg
CCCc1nc2c(C)cc(-c3nc4ccccc4n3C)cc2n1Cc1ccc(-c2ccccc2C(=O)O)cc1 [telmisartan],"albuminuria, significance compared with diabetic controls",[2]; 12 weeks,not statistically significant
same,blood pressure,"[2]; 12 weeks, mean±SEM",111.2±2.3 mmHg
same,blood pressure reduction vs diabetic controls,"[2]; 12 weeks, p=0.071",5.9 mmHg
same,albuminuria (urinary albumin excretion per 24 h),[2]; 12 weeks,97.8±26.4 μg/24 h
same,"glomerulosclerosis in the kidney, histological score",[2],not significantly different
same,plasma neutrophil gelatinase-associated lipocalin (NGAL) levels,[2]; compared with untreated diabetic mice,significantly increased
same,systolic blood pressure (RR systolic),2K1C-rats,always significant versus vehicle treated animals
same,blood sugar versus placebo,diabetic eNOS ko mice,No significant differences
CC#CCn1c(N2CCC[C@@H](N)C2)nc2c1c(=O)n(Cc1nc(C)c3ccccc3n1)c(=O)n2C [linagliptin],decrease in 2 h postprandial blood glucose excursions,"[3]; already on Day 1, doses ≥2.5 mg",80%
same,safety and tolerability,[3]; people with type 2 diabetes,placebo-like safety and tolerability
same,incidence of diabetes at the end of the study period,"NOD mice; diet corresponding to 3-10 mg/kg p.o., 60 days, p=0.021",9 out of 30
same,active plasma GLP-1 at termination,"NOD mice; mouse, in vivo",higher
same,beta cell mass,NOD mice; p<0.01,0.48 ± 0.09 mg
same,plasma osteopontin levels,[2]; 12 weeks,significantly lower
same,albuminuria (urinary albumin excretion per 24 h),[2]; 12 weeks,120.8±37.7 μg/24 h
same,"glomerulosclerosis in the kidney, histological score",[2],2.1+/−0.0
same,"PMN derived RONS signal, L-012 enhanced chemiluminescence","[4]; LPS 0.5, 5 and 50 μg/ml",suppresses the signal concentration-dependently
same,inhibition of oxidative burst,"[4]; NADPH oxidase activation by LPS and zymosan A, compared with other gliptins",best inhibition
same,"suppression of LPS or zymosan A-triggered oxidative burst, luminol/peroxidase enhanced chemiluminescence",[4]; versus nebivolol,as efficient as nebivolol
same,"suppression of LPS or zymosan A-triggered oxidative burst, luminol/peroxidase enhanced chemiluminescence",[4]; versus other gliptins,much more efficient
same,"direct vasodilatory effect (induction of vasodilation), ranking",[5],most potent compound
same,"feT, SS",[6]; 1 mg once daily oral,3.34%
same,fe0-24,[6]; 2.5 mg once daily oral,0.139%
same,"feT, SS",[6]; 2.5 mg once daily oral,3.06%
same,fe0-24,[6]; 5 mg once daily oral,0.453%
same,"feT, SS",[6]; 5 mg once daily oral,6.27%
same,fe0-24,[6]; 10 mg once daily oral,0.919%
same,"feT, SS",[6]; 10 mg once daily oral,3.22%
same,"mean accumulation ratio RA,AUC",[6]; doses above 1 mg once daily,≤ 1.4
same,route of excretion,"[6]; human, in vivo",primarily excreted unchanged via the bile
same,excreted via the kidney,[6]; therapeutic oral dose levels,< 7 % of the administered oral dose
same,"steatosis, inflammation and fibrosis in the liver, histological scoring",[7],reduction
same,proportion of infarcted tissue relative to the total area at risk,"[8]; 3 mg/kg once daily from 30 days before I/R, p<0.001",−21%
same,absolute infarction size,"[8]; 3 mg/kg once daily, p<0.05",−18%
same,isovolumetric contractility index dP/dTmin,[8]; after 60 days,−4957±73 mmHg/s
same,glucagon-like peptide-1 (GLP-1) levels increased,[8]; p<0.0001,18 fold
same,"Primary CV endpoint, incidence rate/1000 pt-yr",[9]; in vivo,5.3 /1000 pt-yr
same,"All adjudicated CV events, Hazard ratio (95% CI)",[9]; linagliptin vs comparator,"0.55 (0.33, 0.94)*"
same,"FDA-custom MACE, Hazard ratio (95% CI)",[9]; linagliptin vs comparator,"0.34 (0.15, 0.75)*"
same,"Hospitalization for UAP, Hazard ratio (95% CI)",[9]; linagliptin vs comparator,"0.24 (0.02, 2.34)"
same,"Primary CV endpoint, Hazard ratio (Cox proportional model) (95% CI)",[9]; linagliptin vs comparator,"0.34 (0.16, 0.70)*"
same,"Transient ischemic attack, Hazard ratio (95% CI)",[9]; linagliptin vs comparator,"0.17 (0.02, 1.53)"
same,"Primary CV endpoint, %",[9]; n = 3319,0.3%
same,"All adjudicated CV events, incidence rate/1000 pt-yr",[9]; secondary endpoint,12.6 /1000 pt-yr
same,"FDA-custom MACE, incidence rate/1000 pt-yr",[9]; secondary endpoint,4.3 /1000 pt-yr
same,"Hospitalization for UAP, incidence rate/1000 pt-yr",[9]; tertiary endpoint,0.5 /1000 pt-yr
same,"Non-fatal MI, incidence rate/1000 pt-yr",[9]; tertiary endpoint,2.9 /1000 pt-yr
same,"Non-fatal stroke, incidence rate/1000 pt-yr",[9]; tertiary endpoint,1.0 /1000 pt-yr
same,"Transient ischemic attack, incidence rate/1000 pt-yr",[9]; tertiary endpoint,0.5 /1000 pt-yr
same,suppression in response to peroxynitrite formation/-mediated nitration,[10],Minor (but significant) suppression
same,interference with 1-electron-oxidations by the hydrogen peroxide/peroxidase system,[11],most potent compound
same,adjusted mean HbA1c change from baseline,[1]; 2 years,−0.4%
same,"patients with investigator-defined, drug-related hypoglycemia","[1]; human, in vivo, 2 years",7.5%
same,relative risk for the combined CV endpoint (RR),"[1]; human, in vivo, 2 years",0.50
same,body weight change,[1]; in vivo,-1.4 kg
same,"body weight, adjusted mean difference",[1]; in vivo,-2.7 kg
same,mean between-group difference in HbA1c change,"[1]; linagliptin vs glimepiride, p=0.0001 for noninferiority",0.17%
same,active GLP-1 AUC(0-72 h),5/6N rats; 5/6N animals,201 pg·h/mL
same,active GLP-1 maximum plasma concentration (Cmax),5/6N rats; 5/6N animals,6.36 ± 2.58 pg/mL
same,"cardiac mRNA levels of TGF-β, TIMP-1, collagens 1α1 and 3α1 and BNP","5/6N rats; increased in 5/6N versus sham, all p<0.05",reduced or even normalized
same,increase of the AUC of GLP-1,5/6N rats; rat model of renal failure,approximately twofold
same,active GLP-1 AUC(0-72 h),5/6N rats; sham animals,114 pg·h/mL
same,active GLP-1 maximum plasma concentration (Cmax),5/6N rats; sham animals,3.91 ± 1.86 pg/mL
same,leukocyte adhesion to endothelial cells,[12],suppresses leukocyte adhesion
same,endothelial dysfunction (endothelium-dependent relaxation),septic rats (LPS); LPS treated rats,significantly improved
same,"vascular function (Ach-, GTN-, and diethylamine NONOate-dependent relaxation)",septic rats (LPS); impaired by LPS,almost normalized
same,"mitochondrial and whole blood (LPS, PDBu-stimulated) RONS production",septic rats (LPS); increased by LPS,improved
same,"vascular oxidative stress (DHE) and markers of vascular inflammation (VCAM-1, Cox-2, NOS-2)",septic rats (LPS); increased by LPS,significantly improved
same,increase of plasma GLP-1 levels,"septic rats (LPS); rat, in vivo",~10 fold
same,blood sugar versus placebo,diabetic eNOS ko mice,No significant differences
same,cardiac mitochondrial ROS formation and whole blood LPS/zymosan A-triggered oxidative burst,nitrate tolerant rats; nitrate-tolerant rats,improved; also recorded: minor improvement
same,nitrate tolerance,nitrate tolerant rats; nitroglycerin treated rats,not altered
same,endothelial dysfunction (endothelium dependent relaxation),"nitrate tolerant rats; nitroglycerin treated rats, linagliptin 3-10 mg/kg/d by diet 7 d",significantly improved
same,body weight of the animals,"nitrate tolerant rats; rat, in vivo",Neither nitroglycerin nor linagliptin treatment has effects
same,blood glucose levels,nitrate tolerant rats; slightly increased in the nitroglycerin group,normalized
Cn1c(=O)cc(N2CCC[C@@H](N)C2)n(Cc2ccccc2C#N)c1=O [alogliptin],"direct vasodilatory effect (induction of vasodilation), ranking",[5],directly followed by alogliptin and vildagliptin
N#C[C@@H]1CCCN1C(=O)CNC12CC3CC(CC(O)(C3)C1)C2 [vildagliptin],suppression of superoxide formation,[13],Minor (but significant) suppression
same,"direct vasodilatory effect (induction of vasodilation), ranking",[5],directly followed by alogliptin and vildagliptin
N[C@@H](CC(=O)N1CCn2c(nnc2C(F)(F)F)C1)Cc1cc(F)c(F)cc1F [sitagliptin],"direct vasodilatory effect (induction of vasodilation), ranking",[5],not more efficient in the induction of vasodilation than the solvent alone control
